IC50 and inhibition data for five compounds are collected here from patent US12492197B2, “3,5-disubstituted pyrazole compounds as kinase inhibitors and uses thereof” (IMPACT THERAPEUTICS (SHANGHAI), INC, priority 2019, dated 2025).

Experiment [1] has as its system human colon cancer cell LoVo. In words: Proliferation of LoVo cells, MTT assay. Type of experiment: cell-based. Conditions: 96 h, 4 days treatment, read-out: IC50 (inhibition of proliferation of LoVo). Background: Formazan colour is commonly taken as a measure of viable cells.
The next experiment addresses T1, CHK1 kinase (Homo sapiens, UniProt O14757).
T1 construct: purchased Promega V1941
T1 sequence (O14757 1-476): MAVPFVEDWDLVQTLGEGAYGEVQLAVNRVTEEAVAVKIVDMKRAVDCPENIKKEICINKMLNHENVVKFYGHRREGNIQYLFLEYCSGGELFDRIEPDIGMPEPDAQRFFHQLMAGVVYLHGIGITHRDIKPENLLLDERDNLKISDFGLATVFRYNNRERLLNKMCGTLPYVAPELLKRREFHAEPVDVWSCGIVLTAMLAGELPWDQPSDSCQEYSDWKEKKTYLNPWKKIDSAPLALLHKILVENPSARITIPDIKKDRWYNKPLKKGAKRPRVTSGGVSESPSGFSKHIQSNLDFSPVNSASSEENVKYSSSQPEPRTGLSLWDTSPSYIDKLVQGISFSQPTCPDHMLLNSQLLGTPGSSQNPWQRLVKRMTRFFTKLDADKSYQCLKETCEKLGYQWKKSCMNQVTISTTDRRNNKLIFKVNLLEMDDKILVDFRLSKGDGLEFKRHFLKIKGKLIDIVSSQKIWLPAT
Kind of experiment: CHK1 kinase inhibition, ADP-Glo kinase assay. It counts as biochemical. The settings on record: ATP 10 μM, CHK1 1 ng/well; for IC50: read-out: IC50 (inhibitory effect on CHK1 kinase activity); for inhibition at 0.01 µM: compound concentration 10 nM, read-out: Inh % (inhibitory effect on CHK1 kinase activity). Background: ADP-Glo turns the ADP formed in a reaction into a luminescent signal.

Experiment [2] deals with human breast cancer cell HCC1806. Kind of experiment: Proliferation of HCC1806 cells, MTT assay. Conditions: HCC1806, 72 h, 3 days treatment, read-out: IC50 (inhibition of proliferation of HCC1806). Type of experiment: cell-based.
In experiment [3] the test system is human pancreatic cancer cell SW1990. Kind of experiment: Proliferation of SW1990 cells, MTT assay. Conditions: SW1990, 120 h, 5 days treatment, read-out: IC50 (inhibition of proliferation of SW1990). It counts as cell-based. On the procedure:
Newly revived SW1990 cells (purchased from Shanghai Fuheng Biology) were cultured and passaged for at least three generations before use. Cells were used at about 90% confluency for experiments. Cells were digested with trypsinase and centrifuged at 800 rpm for 5 minutes. The cell pellets were resuspended in fresh DMEM medium and cells were counted. Cells were seeded on 96-well cell culture plates at 5000 cells/well and incubated overnight at 37° C., 5% CO2. The stock solutions of the test substances (including the test compounds and the reference compound) were serially diluted to 8 concentrations with DMSO at a ratio of 1:3. 5 μL of each serially diluted solutions was added to 120 μL of medium (diluted by 25 times) and mixed by shaking. […] The cell culture plates were returned to incubator at 37° C. and 5% CO2 for 5 days. At the end of the treatment the cell viability was determined by MTT colorimetric assay. Cell culture medium in each well was replaced by 100 μL/well of serum-free fresh medium containing MTT (0.5 mg/mL), and the culture was continued for additional 4 hours. Medium was then discarded and 100 μL/well of DMSO was added.
Data was analyzed by GraphPad Prism 6.0. The inhibitory effects of compounds on cell proliferation were plotted based on cell viability vs. the logarithm of compound concentration. Cell viability %=(ODcompound−ODbackground)/(ODDMSO−ODbackground)×100.

Regarding `COc1cccc(OC[C@@H]2CNCCO2)c1-c1cc(Nc2cnc(C#N)cn2)n[nH]1` [Example 1, (S)-5-((5-(2-methoxy-6-(morpholin-2-ylmethoxy)phenyl)-1H-pyrazol-3-yl)amino)pyrazine-2-carbonitrile], the IC50 was 15.5 nM in experiment [1], 0.84 nM on CHK1 kinase, 7.4 nM in experiment [2] and 6.3 nM in experiment [3]. Further, the inhibition at 0.01 µM on CHK1 kinase stood at 95%.
For the compound `COc1cccc(OC[C@H]2CCCNC2)c1-c1cc(Nc2cnc(C#N)cn2)n[nH]1` [Example 9, (S)-5-((5-(2-methoxy-6-(piperidin-3-ylmethoxy)phenyl)-1H-pyrazol-3-yl)amino)pyrazine-2-carbonitrile], the IC50 was determined as 4.4 nM in experiment [1], 0.97 nM on CHK1 kinase, 1.2 nM in experiment [2] and 1.2 nM in experiment [3]. On CHK1 kinase, the inhibition at 0.01 µM was 92%.
Regarding `COc1cc(F)cc(OC[C@@H]2CNCCO2)c1-c1cc(Nc2cnc(C#N)cn2)n[nH]1` [Example 14, (S)-5-((5-(4-fluoro-2-methoxy-6-(morpholin-2-ylmethoxy)phenyl)-1H-pyrazol-3-yl)amino)pyrazine-2-carbonitrile], the IC50 in experiment [1] was determined as 19.2 nM; at CHK1 kinase, 0.69 nM; in experiment [2], 12 nM; in experiment [3], 6.1 nM. The inhibition at 0.01 µM at CHK1 kinase is 94%.
In the case of `COc1cc(Br)cc(OC[C@@H]2CNCCO2)c1-c1cc(Nc2cnc(C#N)cn2)n[nH]1` [Example 18, (S)-5-((5-(4-bromo-2-methoxy-6-(morpholin-2-ylmethoxy)phenyl)-1H-pyrazol-3-yl)amino)pyrazine-2-carbonitrile], on CHK1 kinase, the inhibition at 0.01 µM was 79%. The results for the IC50 in experiment [2] and in experiment [3] were 39.2 nM and 19.6 nM, respectively.
For the compound `COc1cccc(OC2CCNCC2)c1-c1cc(Nc2cnc(C#N)cn2)n[nH]1` [Example 30, 5-((5-(2-methoxy-6-(piperidin-4-yloxy)phenyl)-1H-pyrazol-3-yl)amino)pyrazine-2-carbonitrile], the inhibition at 0.01 µM on CHK1 kinase stood at 89%. Moreover, the IC50 in experiment [2] was determined as 31.7 nM; in experiment [3], 19.1 nM.
